These results are taken from patent publication US9795681B2, “Tamper resistant dosage form comprising an adsorbent and an adverse agent” (Purdue Pharma L.P., priority 2004, dated 2017).

Data set [1] can be described thus: Adsorption of naltrexone hydrochloride onto activated charcoal from 0.1N HCl, HPLC of liquid phase. The following applies: 37° C.; for Naltrexone adsorbed from solution / Naltrexone adsorbed onto the activated charcoal / Naltrexone content in fluid / Naltrexone content in fluid, HPLC area %: 0.1N aqueous HCl. In kind it is physicochemical. The method, then: Example 1 describes a non-limiting method for making an adsorbent/adverse agent. The adsorbent used was DARCO activated charcoal obtained from EM Science, an affiliate of Merck KGaA of Darmstadt, Germany. The DARCO activated charcoal used was 20 to 40 mesh black granular charcoal which passed the USP absorptive power test (see The United States Pharmacopeia, 26:404 (2003)) for activated charcoal.
Adsorption of naltrexone: The activated charcoal (5.02 g) was added to a solution of naltrexone hydrochloride (504.26 mg) (obtained from Mallinkrodt, St. Louis, Mo.) in 0.1N HCI (900 mL). The resultant mixture was stirred at 100 rpm for 120 h at 37° C., and the adsorption (or uptake) of naltrexone hydrochloride into the activated charcoal was monitored by measuring the decrease in concentration of the naltrexone hydrochloride in the liquid phase using high performance liquid chromatography (HPLC). The data was used to calculate the amount of naltrexone adsorbed onto the activated charcoal, e.g., after 2 h, as follows: […]

The nature of data set [2]: Dynamic desorption of the Charcoal/Naltrexone by washing with 0.1N HCl. The data set is classed as physicochemical. The following applies: 1 L aliquots of 0.1N HCl, 25° C. The method, then:
IN HCI. The concentration of naltrexone hydrochloride in the wash filtrates was measured using HPLC as described above.

The conditions of data set [3]: administered orally; cited from earlier work.

Structures can show the parent of a compound that is named as a salt.

For the molecule `O=C1CC[C@@]2(O)[C@H]3Cc4ccc(O)c5c4[C@@]2(CCN3CC2CC2)[C@H]1O5` [naltrexone hydrochloride], the “Naltrexone adsorbed from solution” value in data set [1] (time 0 min) turned out to be 0.00%; in data set [1] (time 10 min), 23.34%; in data set [1] (time 20 min), 32.01%; in data set [1] (time 30 min), 37.62%; in data set [1] (time 40 min) it was 41.36%; in data set [1] (time 50 min) it was 45.37%. Further, the “Naltrexone adsorbed from solution” value came out at 47.75% in data set [1] (time 60 min); 49.10% in data set [1] (time 70 min); 50.76% in data set [1] (time 80 min); 52.98% in data set [1] (time 90 min); 54.38% in data set [1] (time 100 min); 55.36% in data set [1] (time 120 min). Further, the “Naltrexone adsorbed onto the activated charcoal” value in data set [1] (time 0 min) was found to be 0.00 mg; in data set [1] (time 10 min), 117.69 mg; in data set [1] (time 20 min), 161.39 mg; in data set [1] (time 30 min), 189.69 mg; in data set [1] (time 40 min), 208.55 mg; in data set [1] (time 50 min) it was 228.81 mg. Besides, the “Naltrexone adsorbed onto the activated charcoal” value in data set [1] (time 60 min) was 240.76 mg; in data set [1] (time 70 min), 247.60 mg; in data set [1] (time 80 min), 255.97 mg; in data set [1] (time 90 min) it was 267.16 mg; in data set [1] (time 100 min), 274.20 mg; in data set [1] (time 120 min) it was 279.16 mg. Moreover, the “Naltrexone content in fluid” value came out at 504.26 mg in data set [1] (time 0 min); 386.57 mg in data set [1] (time 10 min); 342.87 mg in data set [1] (time 20 min); 314.57 mg in data set [1] (time 30 min); 295.71 mg in data set [1] (time 40 min); 275.45 mg in data set [1] (time 50 min). Further, the “Naltrexone content in fluid” value worked out at 263.50 mg in data set [1] (time 60 min); 256.66 mg in data set [1] (time 70 min); 248.29 mg in data set [1] (time 80 min); 237.10 mg in data set [1] (time 90 min); 230.06 mg in data set [1] (time 100 min); 225.10 mg in data set [1] (time 120 min). The “Naltrexone content in fluid, HPLC area %” value is 4.836 HPLC area % in data set [1] (time 0 min); 3.707 HPLC area % in data set [1] (time 10 min); 3.288 HPLC area % in data set [1] (time 20 min); 3.017 HPLC area % in data set [1] (time 30 min); 2.836 HPLC area % in data set [1] (time 40 min); 2.642 HPLC area % in data set [1] (time 50 min). The “Naltrexone content in fluid, HPLC area %” value is reported as 2.527 HPLC area % in data set [1] (time 60 min); 2.461 HPLC area % in data set [1] (time 70 min); 2.381 HPLC area % in data set [1] (time 80 min); 2.274 HPLC area % in data set [1] (time 90 min); 2.206 HPLC area % in data set [1] (time 100 min); 2.159 HPLC area % in data set [1] (time 120 min). In addition, the “time within which substantially all of the naltrexone adsorption was completed” value in data set [1] (onto activated charcoal, 0.1N HCl) is given as at most 1.5 h. The “wash steps during which the majority of the desorption of naltrexone hydrochloride occurred” value in data set [2] was at most 18 wash steps.
Regarding `C[C@H]1[C@H]2Cc3ccc(O)cc3[C@]1(C)CCN2CC1CC1` [cyclazocine], the duration of action in data set [3] is listed as around 24 h.
As to `O=C1CC[C@@]2(O)[C@H]3Cc4ccc(O)c5c4[C@@]2(CCN3CC2CC2)[C@H]1O5` [naltrexone], the duration of action in data set [3] was around 24 h.
